The text below walks through data of US20210179577A1, “AROMATIC SULFONAMIDE DERIVATIVES FOR THE TREATMENT OF ISCHEMIC STROKE” (Bayer Aktiengesellschaft, priority 2017, published 2021).

The assay has as its target T1, rat P2X4 (Rattus norvegicus, UniProt P51577).
T1 construct: expressed in transfected cells; host or cells: 1321N1 astrocytoma cells
T1 sequence (P51577 1-388): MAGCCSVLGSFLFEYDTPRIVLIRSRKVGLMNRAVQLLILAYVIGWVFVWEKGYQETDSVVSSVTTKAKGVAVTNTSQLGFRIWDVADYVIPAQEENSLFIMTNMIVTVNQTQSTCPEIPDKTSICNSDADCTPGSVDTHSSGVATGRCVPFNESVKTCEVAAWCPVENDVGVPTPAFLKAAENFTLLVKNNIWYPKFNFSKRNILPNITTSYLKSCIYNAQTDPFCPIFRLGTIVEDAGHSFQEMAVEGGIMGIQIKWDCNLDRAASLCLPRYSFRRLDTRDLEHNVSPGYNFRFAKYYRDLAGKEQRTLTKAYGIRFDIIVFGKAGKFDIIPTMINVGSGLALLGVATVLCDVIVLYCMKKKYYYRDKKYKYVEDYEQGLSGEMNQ
The experiment in a line: FLIPR assay, rat P2X4 1321N1 Astrocytoma Cells. Type of assay: cell-based. The settings on record: agonist Mg-ATP at EC80. The procedure: 1321N1 Astrocytoma cells stably expressing human P2X4 or rat P2X4 or mouse P2X4 were plated in Collagen ITO-treated microplate at a seeding density of 10000 cells/well and incubated overnight. P2X4 function was assessed by measuring intracellular calcium changes using the calcium-chelating dye Fluo8-AM (Molecular Devices) on a fluorescent imaging plate reader (FLEX/FLIPR station; Molecular Devices). On the day of the assay, the medium was removed and the cells were incubated for 30 min at […] and 5% CO2 in 30 μL of dye buffer (Hank's balanced salt solution, 10 mM HEPES, 1.8 mM CaCl2, 1 mM MgCl2, 2 mM probenecid, 5 mM D-glucose monohydrate, 5 μM Fluo8-AM, pH=7.4). Compounds diluted in probenecid buffer (Hank's balanced salt solution, 10 mM HEPES, 1.8 mM CaCl2, 1 mM MgCl2, 2 mM probenecid, 5 mM D-glucose monohydrate, pH=7.4) were added in a volume of 10 μL and allowed to incubate for 30 min at room temperature. The final assay DMSO concentration was 0.25%. The agonist, Mg-ATP (Sigma), was added in a volume of 10 μL at a concentration representing the EC80 value. EC80 was determined to be 0.5 μM for human and mouse P2X4 and 5 μM for rat P2X4. The fluorescence was measured for an interval of 120 sec at 2 sec intervals. The excitation and emission wavelengths used to monitor fluorescence were 470-495 nm and 515-575 nm, respectively. The data was analyzed based on the increase in peak relative fluorescence units (RFU) compared to the basal fluorescence and the data was normalized to the agonist control. The compounds were tested in triplicates per plate and mean values were plotted in Excel XLFit to determine IC50 values, percentage of maximal inhibition and the Hill coefficients.
The term IC50 denotes the concentration at which inhibition is half-maximal. `NS(=O)(=O)c1cc(NC(=O)Cc2ccccc2Cl)ccc1-n1cc(C(F)(F)F)cn1` [Example 19, 2-(2-Chlorophenyl)-N-{3-sulfamoyl-4-[4-(trifluoromethyl)-1H-pyrazol-1-yl]phenyl}acetamide]: the IC50 turned out to be 71 nM and the “Rat P2X4 1321N1 Astrocytoma Cells (FLIPR Assay) avg Efficacy” value (shortened to “Rat P2X4 1321N1 Astrocytoma Cells”) is on record as 57%.

Consider `NS(=O)(=O)c1cc(NC(=O)Cc2ccccc2Cl)ccc1-c1cnn(C(F)F)c1` [Example 326, 2-(2-Chlorophenyl)-N-{4-[1-(difluoromethyl)-1H-pyrazol-4-yl]-3-sulfamoylphenyl}acetamide], for which the IC50 was determined as 325 nM and the “Rat P2X4 1321N1 Astrocytoma Cells” value was found to be 99%.

For `N#Cc1cnn(-c2ccc(NC(=O)Cc3ccccc3Cl)cc2S(N)(=O)=O)c1` [Example 39, 2-(2-Chlorophenyl)-N-[4-(4-cyano-1H-pyrazol-1-yl)-3-sulfamoylphenyl]acetamide], the concentration for half-maximal inhibition (IC50) came to 308 nM and the “Rat P2X4 1321N1 Astrocytoma Cells” value is listed as 87%.
